{"source": "patent US20190388459A1", "about": "“NEW THERAPEUTIC USES” (ATLANTIC PHARMACEUTICALS (HOLDINGS) LTD, priority 2017, published 2019)", "key": {"[1]": {"test_system": "OVA-induced allergic asthma mouse model", "experiment": "Ovalbumin-induced murine model of allergic asthma, BALF analysis", "format": "in vivo, Balb/c mice", "conditions": "Day 28, alicaforsen 1 mM IN 30 μl, dexamethasone 10 mg/kg IP, days 14, 25-27", "protocol": "Allergic asthma was modeled in female BALB/c mice by initial sensitization to OVA followed by subsequent intranasal challenge of purified OVA.\nMice were monitored throughout the study for changes in body weight and general signs of sickness. Allergic response to OVA was measured by examining bronchoalveolar lavage fluid (BALF) for inflammatory cell influx and the presence of the inflammatory cytokine IL-13.\nOn days 0 and 14, each animal was administered an IP injection of 200 μL OVA/Alum emulsion containing 100 μg OVA.\nOn days 14 and 25-27, each animal was administered an intranasal challenge of 30 μL PBS containing 50 μg OVA.\nTreatments were performed on the same days as OVA challenge on Study Days 14 and 25-27 (4 total treatments). Treatments were administered 1 hour following OVA challenge.\n10 mg/kg dexamethasone was administered in 200 μL volume/animal (intraperitoneal) on Study Days 14 and 25-27 (4 total treatments).\nBonchoalveolar lavage was performed on euthanised animals. Briefly, an angiocatheter was placed into trachea. 1 mL of PBS was instilled into the lungs and allowed to flow back out into the syringe; the PBS was then instilled and removed again. The resultant Bronchoalveolar lavage fluid (BALF) was centrifuged at 500×g for 5 mins.\nThe non-cellular portion of the BALF was stored at −80° C. The levels of IL-13 were analyzed by Luminex technology.\nThe cellular portion of the BALF was used to analyze the cell influx. The total number of leukocytes within the BALF and different cell types present were examined via flow cytometry.\nGranulocytes: CD45^+; Non-autofluorescent; Gr-1^+\nEosinophils: CD45^+; Non-autofluorescent; Gr-1^+; Siglec F^+"}, "TLR9 [2]": {"target": "T1, TLR9 (Homo sapiens, UniProt Q9NR96)", "T1 sequence (Q9NR96 26-1032)": "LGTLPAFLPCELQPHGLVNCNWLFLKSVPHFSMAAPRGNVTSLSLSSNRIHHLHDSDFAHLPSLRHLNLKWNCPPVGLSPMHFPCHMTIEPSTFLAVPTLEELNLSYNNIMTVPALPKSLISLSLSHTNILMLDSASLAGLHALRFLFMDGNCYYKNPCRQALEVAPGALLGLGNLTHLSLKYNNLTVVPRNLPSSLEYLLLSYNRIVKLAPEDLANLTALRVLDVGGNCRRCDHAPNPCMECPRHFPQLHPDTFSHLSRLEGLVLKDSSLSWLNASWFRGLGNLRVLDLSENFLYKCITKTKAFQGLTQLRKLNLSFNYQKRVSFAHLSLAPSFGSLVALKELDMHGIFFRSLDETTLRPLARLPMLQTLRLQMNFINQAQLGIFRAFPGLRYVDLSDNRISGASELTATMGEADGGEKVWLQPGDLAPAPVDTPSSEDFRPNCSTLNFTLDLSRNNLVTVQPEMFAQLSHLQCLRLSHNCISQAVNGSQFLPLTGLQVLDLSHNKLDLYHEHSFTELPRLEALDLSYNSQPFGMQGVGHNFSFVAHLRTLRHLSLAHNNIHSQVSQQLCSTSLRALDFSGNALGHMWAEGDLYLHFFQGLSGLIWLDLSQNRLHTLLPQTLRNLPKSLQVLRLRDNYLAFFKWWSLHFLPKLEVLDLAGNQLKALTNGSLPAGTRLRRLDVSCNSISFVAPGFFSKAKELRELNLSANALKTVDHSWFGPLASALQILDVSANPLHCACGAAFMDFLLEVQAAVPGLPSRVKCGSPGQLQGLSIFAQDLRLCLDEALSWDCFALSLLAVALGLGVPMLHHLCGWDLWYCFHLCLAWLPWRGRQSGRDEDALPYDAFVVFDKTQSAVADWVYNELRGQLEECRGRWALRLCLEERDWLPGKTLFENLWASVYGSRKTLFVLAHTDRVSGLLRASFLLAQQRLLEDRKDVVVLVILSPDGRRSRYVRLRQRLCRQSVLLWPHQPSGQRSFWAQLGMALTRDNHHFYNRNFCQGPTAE", "experiment": "Effect of heat, Na+, Mg++ and spermine pre-treatment on TLR-9 antagonist activity", "format": "cell-based", "conditions": "pre-treated with 5 mM spermine, heated to 90° C. and cooled; 1.0 uM ODN2006", "protocol": "The samples and conditions of these tests are diagramed in FIG. 9.\nOne sample remained at room temperature while the remaining samples were heated to 90° C. for 3 min and then allowed to cool to room temperature. The samples were then diluted to the indicated concentrations and incubated with the target cells for 1 hr, prior to the addition of 1.0 uM ODN2006 to stimulate TLR-9."}, "[3]": {"experiment": "Circular Dichroism spectroscopy, thermal stability of secondary structure", "format": "physicochemical", "source_text": "SEQ ID NO: 1 was therefore subjected to Circular Dichroism (CD) spectroscopy to gather information about the possible secondary structure. CD of DNA can be utilized to detect all 3 major forms of duplex structure (B, A and Z) and is sensitive to conditions that disrupt the structure such a heating. Of interest was the stability of any secondary structure detected at or above physiologic temperatures.\nAdditional thermal denaturation of the putative duplex was also studied in the presence of Na^+ at concentrations of 50 mM and 150 mM. Sodium fluoride was used as Cl^− ions interfere with the CD spectra in this UV region.\nAdditional experiments were conducted to test the influence of Mg^++ and polyamines on the stability of the structure."}, "TLR9 [4]": {"target": "T1, TLR9", "experiment": "TLR-9 antagonist activity with E. coli genomic DNA as the activator", "format": "cell-based"}, "TLR9 [5]": {"target": "T1, TLR9", "experiment": "TLR9 activation (agonist) screen, TLR9/NF-kB luciferase reporter HEK 293 cell line", "format": "cell-based", "design": "host or cells: HEK 293 (TLR9/NF-kB luciferase reporter line)", "conditions": "up to concentrations as high as 100 uM", "protocol": "[…] Briefly, the TLR9/NF-kB luciferase reporter HEK 293 cell line (Abeomics, San Diego, Calif.) was plated in 96-well white solid plates at 5×10^4 cells per well for 16 h. […] Luciferase activity was then measured and analyzed."}, "dry eye murine model": {"test_system": "dry eye murine model", "experiment": "Scopolamine dry eye murine model, corneal fluorescein staining and clinical signs", "format": "in vivo, Mouse C57BL/6N", "conditions": "for Corneal fluorescein staining score (mean ± SD): one dose per day, topical both eyes", "protocol": "In a model of mice, the application of transdermal scopolamine patches to the mid-tail is used to reduce aqueous tear production and thus mimic lacrimal gland insufficiency. The function of scopolamine is to induce a pharmacologic blockade of cholinergic receptors in the lacrimal gland and therefore to decrease aqueous production. The desiccation is amplified by adding environmental stress. Animals are exposed to a low-humidity environment and constant airflow.\nMice were treated with transdermal scopolamine administration (0.5 mg/72 h; Scopoderm TTS®). The transdermal scopolamine patch was wrapped near the tail base of the mouse, secured with cellophane tape. Patches were reapplied every 48 hours.\nMice were randomized into 4 groups of 10 animals. The study was divided into 2 experimental sets with 5 animals of each group represented.\nAll test items, control items and comparator item were instilled in both eyes (5 μL per administration), using a micropipette.\nTear production and corneal defects were assessed at baseline, on Days 3, 6 and 10 using phenol red thread (PRT) and corneal fluorescence staining (CFS), respectively, for each animal of the 4 groups.\nEach day, the general clinical signs and the appearance of all animals was observed.\nAt the different time points the measurement was performed before administration on Day 3 and at least one hour after the second treatment for the other days of the study. The eyes of the animals from all groups were examined by slit-lamp observation using blue light after 0.5% fluorescein eye drop instillation (0.5 μL). Punctuate staining was recorded with the standardized National Eye Institute (NEI) grading system giving a 0-3 score to each of the 5 areas in which the corneas were divided."}, "TLR9 [6]": {"target": "T1, TLR9", "experiment": "Inhibition of TLR9-mediated NF-kB induction activated by CpG ODN2006, luciferase reporter HEK 293 cell line", "format": "cell-based", "design": "host or cells: HEK 293 (TLR9/NF-kB luciferase reporter line)", "protocol": "Briefly, the TLR9/NF-kB luciferase reporter HEK 293 cell line was plated in 96-well white solid plates at 5×10^4 cells per well for 16 h. […] Cells were then treated with 20 ug/ml of CpG ODN2006 to activate TLR9. After 16 h, luciferase activity was measured and analyzed."}}, "note": "Marks after values point to notes of the source that are not given here.", "data": [{"compound": "C[C@@H]1C[C@H]2[C@@H]3CCC4=CC(=O)C=C[C@]4(C)[C@@]3(F)[C@@H](O)C[C@]2(C)[C@@]1(O)C(=O)CO", "note": "[Dexamethasone]", "values": [{"measurement": "BALF IL-13, Mean", "setting": "[1]", "value": "13.2** pg/ml"}, {"measurement": "Total CD45 cells in BALF, Mean", "setting": "[1]", "value": 236574}, {"measurement": "Eosinophil (Frequency of CD45+) in BALF, Mean", "setting": "[1]; in % (unit assumed)", "value": "46.60**"}, {"measurement": "Granulocyte (Frequency of CD45+) in BALF, Mean", "setting": "[1]; in % (unit assumed)", "value": "51.88**"}]}, {"compound": "alicaforsen (GCCCAAGCTGGCATCCGTCA; chemistry not given here; listed as Homo sapiens) [SEQ ID NO: 1]", "values": [{"measurement": "TLR-9 inhibitory activity of spermine-treated samples", "setting": "TLR9 [2]", "value": "some activity is still observed"}, {"measurement": "effect of spermine on secondary structure", "setting": "[3]; 5 mM spermine in the presence of 50 mM Na+", "value": "completely abolished the secondary structure"}, {"measurement": "structure retained (190 nm peak intensity)", "setting": "[3]; 50 and 150 mM sodium, 40° C.", "value": "at least 50%"}, {"measurement": "loss of signal strength of 190 nm CD band", "setting": "[3]; ddH20, heating to 80° C.", "value": "> 85", "unit": "%"}, {"measurement": "antagonism of TLR-9 activation by E. coli genomic DNA", "setting": "TLR9 [4]", "value": "remained antagonistic to activation of TLR-9"}, {"measurement": "agonist activity at TLR-9", "setting": "TLR9 [5]", "value": "devoid of agonist activity"}, {"measurement": "tolerability of multiple topical administrations", "setting": "dry eye murine model; 1 mM and 10 mM, topical ocular", "value": "clinically well tolerated"}, {"measurement": "Corneal fluorescein staining score (mean ± SD)", "setting": "dry eye murine model; Day 6, 1 mM", "value": "10.5 ± 2.6"}, {"measurement": "Corneal fluorescein staining score (mean ± SD)", "setting": "dry eye murine model; Day 6, 10 mM", "value": "10.8 ± 2.0"}, {"measurement": "Corneal fluorescein staining score (mean ± SD)", "setting": "dry eye murine model; Day 10, 1 mM, listed as ALICAFORSEN", "value": "9.3 ± 3.1"}, {"measurement": "Corneal fluorescein staining score (mean ± SD)", "setting": "dry eye murine model; Day 10, 1 mM, listed as alicaforsen", "value": "lower than the Vehicle group"}, {"measurement": "Corneal fluorescein staining score (mean ± SD)", "setting": "dry eye murine model; Day 10, 10 mM, listed as ALICAFORSEN", "value": "9.7 ± 2.2"}, {"measurement": "Corneal fluorescein staining score (mean ± SD)", "setting": "dry eye murine model; Day 10, 10 mM, listed as alicaforsen", "value": "lower than the Vehicle group"}, {"measurement": "TLR-9 antagonism", "setting": "TLR9 [6]; ODN2006 as activator", "value": "antagonist of TLR-9"}, {"measurement": "concentration needed for TLR-9 antagonism relative to inhibition of ICAM-1 expression", "setting": "TLR9 [6]; comparative dose responses, FIG. 3", "value": "requires higher concentrations than the inhibition of ICAM-1 expression"}]}]}
